Where no end group is shown, it is not given here. [ ]: non-standard residue; d: D form. pGlu = O=C1CC[C@@H](C(=O)O)N1
Legend:
[1] = test system: TNBS-induced model of acute inflammatory bowel disease (UC) in SD rat; assay: TNBS-induced model of acute inflammatory bowel disease (UC) in SD rat; type: in vivo
Excerpt: In this experiment, a rat model of ulcerative colitis was established by administering trinitrobenzene sulfonic acid (TNBS) to laboratory animal male SD rats for a single enema intervention. Acute colitis in rats induced by trinitrobenzene sulfonic acid (TNBS) is an immune response induced by cytokines secreted by Th1 type cells. […] This model is simple to establish and has good reproducibility. It is an experimental animal model widely used in evaluating drugs for the treatment of inflammatory bowel disease. […] During the experimental treatment period (D1-D14), the body weight and general clinical observation indicators (including but not limited to food intake, water intake, activity level and defecation, etc.) of the animals in each experimental group were dynamically collected. At the same time, based on the relevant scoring standards for the disease activity index of ulcerative colitis, the reactivity such as the weight loss degree, stool morphology and trait, and bloody stool of the animals in each experimental group after TNBS induction were scored, and the disease activity index (DAI) of ulcerative colitis was calculated, once a day for 14 consecutive days. At the end point of the experiment, colon tissues of animals in each experimental group were collected, and the length and weight of the colon were measured and then the non-autopsy images were collected. Then the colon was cut open along the intestinal wall longitudinally and autopsy images were collected. Based on the “Criteria for Scoring Gross Morphological Manifestations of the Colon”, the gross damage with respect to colon adhesions, colon ulcers and inflammation of animals in each experimental group was observed and scored. Ulcer images were collected under a stereomicroscope and the area of colon ulcer foci was calculated, followed by routine fixation.

[2] = test system: zebrafish model of intestinal mucosal injury; assay: Efficacy in relieving colitis: intestinal lumen area in TNBS-treated zebrafish; type: in vivo; parameters: key to Activity in relieving intestinal lumen dilatation: * p < 0.05; ** p < 0.01; *** p < 0.001; “−“ indicates absence of activity; “+” indicates some relief of intestinal lumen dilatation; “#” indicates that all the zebrafishes died in the experiment; “&” indicates that 13 zebrafishes died in the experiment; details: for Intestinal lumen area (pixels, mean ± SE): 2 days after TNBS, n = 10; for Activity in relieving intestinal lumen dilatation: 1000 μg/mL, significance vs model control group of the same batch
Procedure: Experimental animals: Wild-type AB strain zebrafishes, bred by natural pair mating. Zebrafishes aged 3 days post fertilization (3 dpf). Zebrafishes were kept in fish farming water at 28° C. (water quality: 200 mg of instant sea salt in each 1L of reverse osmosis water, with the conductivity of 450-550 μS/cm; pH of 6.5-8.5; and hardness of 50-100 mg/L CaCO3), the experimental animal use license number is: SYXK (Zhe) 2012-0171, and the breeding management met the requirements of the international AAALAC certification (certification number: 001458).
(1) Grouping: Polypeptide group: prepared into a stock solution of 20.0 mg/mL with ultrapure water and stored at −20° C.
Positive control group: prednisone, as white powder, with batch number C10016501, Shanghai Macklin Biochemical Technology Co., Ltd., stored at 4° C.; prepared into a 15.0 mg/mL stock solution with DMSO, and stored in aliquots at −20° C.
Normal control group and model control group.
(2) Experimental method: 3 dpf wild-type AB strain zebrafishes were randomly selected and placed in a 6-well plate, with 30 zebrafishes in each well (experimental group). Except for the normal control group, all other experimental groups were given TNBS in water to establish the zebrafish model of intestinal mucosal injury. After 2 days of treatment at 28° C., TNBS was removed, and polypeptide compound in water (at concentrations shown in Table 4) was given respectively, and for the positive control, prednisone was 15.0 μg/mL. A normal control group (healthy group) and a model control group (intestinal mucosal injury group) were set up at the same time. The capacity of each well (experimental group) was 3 mL. After 2 days of treatment at 28° C., 10 zebrafishes were randomly selected from each experimental group and photographed under a dissecting microscope. NIS-Elements D 3.20 advanced image processing software was used to analyze and collect data, and the intestinal lumen area of the zebrafish was analyzed. The statistical analysis results of this indicator were used to evaluate the efficacy of the samples in relieving colitis. The statistics results were expressed as mean±SE. SPSS26.0 software was used for statistical analysis, and p<0.05 indicates statistically significant difference.
The concentration gradient of the test substances set in this experimental system was 250 μg/mL, 500 μg/mL, and 1000 μg/mL. […] When the concentration of the test substance was further increased for intervention, the death phenomenon of zebrafishes was found in the group; therefore, in the subsequent rounds of activity evaluation, each test polypeptide compound was uniformly administered at 1000 μg/mL for intervention.

[3] = D 0-D 14, compound 12: 0.8 mg/kg, mesalazine: 30.0 mg/kg, enema once a day 14 days, mean ± SD
[4] = D 14, compound 12: 0.8 mg/kg, mesalazine: 30.0 mg/kg, enema once a day 14 days, mean ± SD
[5] = experimental endpoint, compound 12: 0.8 mg/kg, mesalazine: 30.0 mg/kg, enema once a day 14 days, mean ± SD
[6] = set treatment regimen, enema once a day 14 days, vs model control group

Compound	Activity in relieving intestinal lumen dilatation [2]	further results
Nc1ccc(O)c(C(=O)O)c1 [Mesalazine, mesalazine, reference compound]		Body weight, Grouping day (D 0, g) ([1]; D 0, before treatment, compound 12: 0.8 mg/kg, mesalazine: 30.0 mg/kg, enema once a day, mean ± SD): 276.64 ± 7.47 g; DAI score AUC(0-14 d) (D 0-D 14) [1, 3]: 58.75 ± 2.93; Weight change range (D 0-D 14, %) [1, 3]: −4.29 ± 7.79%; DAI score, Experimental day 1 (D 1, point) ([1]; D 1, compound 12: 0.8 mg/kg, mesalazine: 30.0 mg/kg, enema once a day, mean ± SD): 4.2 ± 0.4 point; DAI score, Experimental day 3 (D 3, point) ([1]; D 3, compound 12: 0.8 mg/kg, mesalazine: 30.0 mg/kg, enema once a day, mean ± SD): 6.2 ± 0.6 point; Body weight, Experimental day 5 (D 5, g) ([1]; D 5, compound 12: 0.8 mg/kg, mesalazine: 30.0 mg/kg, enema once a day, mean ± SD): 234.86 ± 8.07 g; Body weight, Experimental endpoint (D 14, g) [1, 4]: 264.43 ± 17.65 g; DAI score, Experimental endpoint (D 14, point) [1, 4]: 2.1 ± 1.6 point; Colon length (cm) [1, 5]: 14.76 ± 2.06 cm; Colon ulcer and inflammation score (point) [1, 5]: 4.30 ± 0.95 point; Colon weight (g) [1, 5]: 3.42 ± 1.15^ g; Colonic adhesion score (point) [1, 5]: 2.60 ± 0.52 point; Effect on disease progression of ulcerative colitis / DAI scores (in words) [1, 6]: no significant effect on the disease symptoms of ulcerative colitis; Effect on weight gain inhibition / weight loss response of model animals (in words) [1, 6]: did not show a significant weight improvement effect
PRKVAAQ [Compound 5]	* (* p < 0.05)	Intestinal lumen area (pixels, mean ± SE) ([2]; 250 μg/mL in water): 42960 ± 2661 pixels; Intestinal lumen area (pixels, mean ± SE) ([2]; 500 μg/mL in water): 45713 ± 4481 pixels; Intestinal lumen area (pixels, mean ± SE) ([2]; 1000 μg/mL in water): 33977 ± 3524 pixels; Intestinal lumen area compared with the model control group (in words) ([2]; 250, 500, 1000 μg/mL, Table 4): significant statistical differences compared with the model control group
PVPQAK [Compound 44]	−	
PVPQAKP [Compound 60]	−	
PVPQAKPR [Compound 59]	+	
Pro-Arg-Lys-Val (PRKV; printed: Pro-Arg-Lys-Val) [Compound 18]	−	
Pro-Gln-Ala-Lys (PQAK; printed: Pro-Gln-Ala-Lys) [Compound 14]	+	
Pro-Val-Pro-Ala (PVPA; printed: Pro-Val-Pro-Ala) [Compound 42]	+	
Pro-Val-Pro-Gln-Ala (PVPQA; printed: Pro-Val-Pro-Gln-Ala) [Compound 39]	+	
Pro-Val-Pro-Glu-Ala (PVPEA; printed: Pro-Val-Pro-Glu-Ala) [Compound 40]	+	
Pro-Val-Pro-Ile-Ala (PVPIA; printed: Pro-Val-Pro-Ile-Ala) [Compound 41]	+	
RKDVYEPVPQAK [Compound 93]	* (* p < 0.05)	
RKDVYKEPVPQAK [Compound 92]	** (** p < 0.01)	
RKDVYKEPVPQAKPRKVAAQ [Compound 91]	+	
RKDVYPVPQ [Compound 94]	*** (*** p < 0.001)	
SSEDIKEEPVPQAK [Compound 98]	** (** p < 0.01)	
SSEDIKEKEPVPQAKPRKVAAQ [Compound 97]	*** (*** p < 0.001)	
SSEDIKEPVPQ [Compound 99]	* (* p < 0.05)	
VPPKEPVPQAKPRKVAAQ [Compound 100]	*** (*** p < 0.001)	
VPYKEPVPQAKPRKVAAQ [Compound 88]	* (* p < 0.05)	
Val-Ala-Ala-Gln (VAAQ; printed: Val-Ala-Ala-Gln) [Compound 8]	+	
Val-Pro-Gln-Ala (VPQA; printed: Val-Pro-Gln-Ala) [Compound 13]	−	
pyro-Glu-Leu-Lys-Glu-Pro-Val-Pro-Gln-Ala-Lys-Pro-Arg-Lys-Val-Ala-Ala-Gln ([pGlu]LKEPVPQAKPRKVAAQ; also: acetate salt) [Compound 89]	** (** p < 0.01)	

From patent publication US20250101063A1, “POLYPEPTIDE COMPOUND AND USE THEREOF IN TREATMENT OF ENTERITIS” (Sichuan Gooddoctor Panxi Pharmaceutical Co., Ltd., priority 2022, published 2025)
